Target: T1, DOCK1 (DHR-2 domain) (Homo sapiens, UniProt Q14185)
T1 construct: polypeptide fragments corresponding to the DHR-2 domain of DOCK1 or DOCK2 from mice and humans; Histidine-SUMO (N); made in house; host or cells: E. coli Arctic express (DE3)
T1 sequence (Q14185 1207-1617 limits assumed): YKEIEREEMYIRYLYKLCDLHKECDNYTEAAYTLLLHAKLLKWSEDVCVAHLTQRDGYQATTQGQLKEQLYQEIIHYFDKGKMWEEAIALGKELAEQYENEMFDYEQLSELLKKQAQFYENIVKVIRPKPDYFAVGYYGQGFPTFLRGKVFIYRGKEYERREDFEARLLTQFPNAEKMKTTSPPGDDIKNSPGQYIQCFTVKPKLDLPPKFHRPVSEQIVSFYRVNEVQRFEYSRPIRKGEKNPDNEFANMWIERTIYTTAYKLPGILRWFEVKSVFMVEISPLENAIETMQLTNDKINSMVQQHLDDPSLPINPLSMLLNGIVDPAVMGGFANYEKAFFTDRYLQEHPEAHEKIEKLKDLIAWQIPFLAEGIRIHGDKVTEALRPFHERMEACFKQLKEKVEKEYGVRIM
Test: In vitro GEF assay: Rac activation by DOCK1 DHR-2 domain
Type: biochemical, mice and humans
Conditions: in words
Outline: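 Human/mouse His-SUMO DHR-2 fragment preincubated 20 min at RT with compound (1% DMSO) in MES buffer pH 7.0 with 20 μM GDP, then added to GDP-loaded GST-Rac (15 μM) plus 3.6 μM Bodipy-FL-GTP at 30° C. Initial velocity (0–10 s fluorescence slope, ex 488/em 514 nm) vs DMSO control gave IC50.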

COC(=O)c1cc(S(=O)(=O)N2CCCC2)cn1CC(=O)c1ccc(-c2cccc(C(F)(F)F)c2)cc1 [RT-22, methyl 1-(2-oxo-2-(3′-(trifluoromethyl)-[1,1′-biphenyl]-4-yl)ethyl)-4-(pyrrolidin-1-yl-sulfonyl)-1H-pyrrole-2-carboxylate]
DOCK1-inhibiting activity compared with TBOPP (GEF assay): higher than those of TBOPP | selective inhibitory activity against DOCK1 compared to TBOPP (GEF assay): higher than those of TBOPP | selective inhibitory activity against DOCK1 versus DOCK2 (GEF assay DOCK1 vs DOCK2 DHR-2 domain): higher selective inhibitory activity against DOCK1 than against DOCK2
